According to patent US20220411471A1, “CELL-PERMEABLE CYCLIC PEPTIDES AND USES THEREOF” (Unnatural Products Inc., priority 2019, published 2022):
Like-named read-outs stand apart in the source and are kept apart here. Non-standard residues stand in square brackets, D forms with d. Residues, ends and D or L forms follow the SMILES beside them. Trp(6-Cl) = N[C@@H](Cc1c[nH]c2cc(Cl)ccc12)C(=O)O; Ala(4-thiazolyl) = N[C@@H](Cc1cscn1)C(=O)O; NMePhe(4-F) = CN[C@@H](Cc1ccc(F)cc1)C(=O)O; Phe(4-Cl) = N[C@@H](Cc1ccc(Cl)cc1)C(=O)O; Phe(4-F) = N[C@@H](Cc1ccc(F)cc1)C(=O)O; NMeF = CN[C@@H](Cc1ccccc1)C(=O)O; 3Pal = N[C@@H](Cc1cccnc1)C(=O)O; 2Thi = N[C@@H](Cc1cccs1)C(=O)O; NMeL = CN[C@@H](CC(C)C)C(=O)O; Tle = CC(C)(C)[C@H](N)C(=O)O; NMeV = CN[C@H](C(=O)O)C(C)C; Pip = O=C(O)[C@@H]1CCCCN1; dPip = O=C(O)[C@H]1CCCCN1; hSer = N[C@@H](CCO)C(=O)O; NMeA = CN[C@@H](C)C(=O)O; dNMeA = CN[C@H](C)C(=O)O; Nme = COCCNCC(=O)O; Sar = CNCC(=O)O

Legend:
Format in all cases: binding
Human MDM4 (HDM4) 1-114 = target: T1, Human MDM4 (HDM4) 1-114 (Homo sapiens, UniProt O15151); test: Fluorescence polarization assay 2, MDM4 (Table 4)
T1 construct: Human MDM4 (HDM4) 1-114
T1 sequence (O15151 1-114): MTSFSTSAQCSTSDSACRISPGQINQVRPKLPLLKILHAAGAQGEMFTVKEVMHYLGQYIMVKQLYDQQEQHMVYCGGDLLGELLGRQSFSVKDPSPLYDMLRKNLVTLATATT
Method: (§1) Compounds dissolved in DMSO were pin transferred (˜100-200 nL) to the 384 well plate containing the MDM4/p53 solution. After incubation for 60 minutes, the fluorescence polarization was read on a Molecular Devices SpectraMax plate reader equipped with a Fluorescein FP cartridge. In addition to probe alone (positive control) and probe/MDM4 (negative control), a titration of linear p53(18-26) was included on every plate as an additional control. IC50 values were fit using either Prism or Collaborative Drug Discovery.

Human MDM2 (HDM2) 1-116 [1] = target: T2, Human MDM2 (HDM2) 1-116 (Homo sapiens, UniProt Q00987); test: Fluorescence polarization assay 2, MDM2 (Table 4)
T2 construct: Human MDM2 (HDM2) 1-116
T2 sequence (Q00987 1-116): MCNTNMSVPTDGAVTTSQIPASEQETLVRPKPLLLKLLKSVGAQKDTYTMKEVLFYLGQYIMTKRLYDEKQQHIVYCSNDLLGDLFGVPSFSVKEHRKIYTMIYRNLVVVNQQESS
Method: as §1, with “MDM2/p53” for “MDM4/p53”, “probe/MDM2” for “probe/MDM4”

Human MDM2 (HDM2) 1-116 [2] = target: T2, Human MDM2 (HDM2) 1-116; test: Fluorescence polarization assay, MDM2/p53 (Table 3)
Method: as §1, with “Human MDM2 (HDM2) 1-116 (20 μL) and FITC-labeled p53 (18-26), 50 nM and 10 nM respectively in 10 mM Tris, 50 mM NaCl, 0.01% Tween20, and 1 mM DTT at pH 7.4 were dispensed into an opaque, black, 384 well plate. Compounds” for “Compounds”, “(˜200” for “(˜100-200”, “MDM2/p53” for “MDM4/p53”, “10” for “60”, “probe/MDM2” for “probe/MDM4”
as §1, with “Human MDM2 (HDM2) 1-116 (20 μL) and FAM-labeled RFMDYWEGL-NH2, 50 nM and 10 nM respectively in 10 mM Tris, 50 mM NaCl, 0.010% Tween20, and 1 mM DTT at pH 7.4 were dispensed into an opaque, black, 384 well plate. Compounds” for “Compounds”, “MDM2/p53” for “MDM4/p53”, “probe/MDM2” for “probe/MDM4”

[3] = Table 4, fluorescence polarization, read-out: MDM4 IC50
[4] = Table 4, fluorescence polarization, read-out: MDM2 IC50

Row | IC50 (Human MDM4 (HDM4) 1-114; [3]) [nM] | IC50 (Human MDM2 (HDM2) 1-116 [1]; [4]) [nM] | IC50 (Human MDM2 (HDM2) 1-116 [2]) [nM] | SMILES | further results
1 | 50 to 100 | 25 to 50 | – | COCC[C@@H]1NC(=O)[C@H]2CCCN2C(=O)[C@H](Cc2ccc(F)cc2)N(C)C(=O)[C@H](Cc2ccc(Cl)cc2)NC(=O)[C@H](C(C)(C)C)NC(=O)[C@H](Cc2ccc(F)cc2)NC(=O)CN(CCOC)C(=O)[C@@H](C)N(C)C(=O)[C@H](Cc2cscn2)NC(=O)[C@H](C)N(C)C1=O [Compound 37, COCC[C@@H]1NC(=O)[C@H]2CCCN2C(=O)[C@H](Cc2ccc(F)cc2)N(C)C(=O)[C@H](CC2=CC=C(Cl)C=C2)NC(=O)[C@@H](NC(=O)[C@H](Cc2ccc(F)cc2)NC(=O)CN(CCOC)C(=O)[C@@H](C)N(C)C(=O)[C@H](CC2=CSC=N2)NC(=O)[C@H](C)N(C)C1=O)C(C)(C)C] (cyclo([Ala(4-thiazolyl)][dNMeA][Nme][Phe(4-F)][Tle][Phe(4-Cl)][NMePhe(4-F)][dP][hSer](Me)[NMeA])) | –
2 | – | – | – | COCC[C@@H]1NC(=O)[C@H]2CCCN2C(=O)[C@H](Cc2ccccc2)N(C)C(=O)[C@H](Cc2ccc(Cl)cc2)NC(=O)CN(C)C(=O)[C@H](Cc2ccc(F)cc2)NC(=O)[C@H](C)N(C)C(=O)[C@@H](C)N(C)C(=O)[C@H](Cc2cscn2)NC(=O)[C@H](C)N(C)C1=O [Compound 33, COCC[C@@H]1NC(=O)[C@H]2CCCN2C(=O)[C@H](CC2=CC=CC=C2)N(C)C(=O)[C@H](CC2=CC=C(Cl)C=C2)NC(=O)CN(C)C(=O)[C@H](CC2=CC=C(F)C=C2)NC(=O)[C@H](C)N(C)C(=O)[C@@H](C)N(C)C(=O)[C@H](CC2=CSC=N2)NC(=O)[C@H](C)N(C)C1=O] (cyclo([Ala(4-thiazolyl)][dNMeA][NMeA][Phe(4-F)][Sar][Phe(4-Cl)][NMeF][dP][hSer](Me)[NMeA])) | IC50 (Human MDM4 (HDM4) 1-114): 50 to 100 nM; IC50 (Human MDM2 (HDM2) 1-116 [1]): < 25 nM
3 | 100 to 150 | 50 to 100 | – | COCC[C@@H]1NC(=O)[C@H]2CCCN2C(=O)[C@H](Cc2ccc(F)cc2)N(C)C(=O)[C@H](Cc2ccc(Cl)cc2)NC(=O)[C@@H]2CCCCN2C(=O)[C@H](Cc2ccc(F)cc2)NC(=O)CN(CCOC)C(=O)[C@@H](C)N(C)C(=O)[C@H](Cc2cscn2)NC(=O)[C@H](C)N(C)C1=O [Compound 46, COCC[C@@H]1NC(=O)[C@H]2CCCN2C(=O)[C@H](Cc2ccc(F)cc2)N(C)C(=O)[C@H](Cc2ccc(Cl)cc2)NC(=O)[C@@H]2CCCCN2C(=O)[C@H](Cc2ccc(F)cc2)NC(=O)CN(CCOC)C(=O)[C@@H](C)N(C)C(=O)[C@H](Cc2cscn2)NC(=O)[C@H](C)N(C)C1=O] (cyclo([Ala(4-thiazolyl)][dNMeA][Nme][Phe(4-F)][Pip][Phe(4-Cl)][NMePhe(4-F)][dP][hSer](Me)[NMeA])) | –
4 | > 150 | 25 to 50 | – | COCC[C@@H]1NC(=O)[C@H]2CCCN2C(=O)[C@H](Cc2ccccc2)N(C)C(=O)[C@H](Cc2ccc(Cl)cc2)NC(=O)[C@H](C)N(C)C(=O)[C@H](Cc2ccc(F)cc2)NC(=O)[C@H](C)N(C)C(=O)[C@@H](C)N(C)C(=O)[C@H](Cc2cscn2)NC(=O)[C@H](C)N(C)C1=O [Compound 34, COCC[C@@H]1NC(=O)[C@H]2CCCN2C(=O)[C@H](CC2=CC=CC=C2)N(C)C(=O)[C@H](CC2=CC=C(Cl)C=C2)NC(=O)[C@H](C)N(C)C(=O)[C@H](CC2=CC=C(F)C=C2)NC(=O)[C@H](C)N(C)C(=O)[C@@H](C)N(C)C(=O)C@H](CC2=CSC=N2)NC(=O)[C@H](C)N(C)C1=O] (cyclo([Ala(4-thiazolyl)][dNMeA][NMeA][Phe(4-F)][NMeA][Phe(4-Cl)][NMeF][dP][hSer](Me)[NMeA])) | –
5 | – | – | < 1000 | CC(C)C[C@@H]1NC(=O)[C@H](Cc2c[nH]c3cc(Cl)ccc23)NC(=O)[C@H](CCC(=O)O)NC(=O)[C@H](Cc2ccccc2)NC(=O)[C@@H]2CCCN2C(=O)[C@H]2CCCN2C(=O)[C@H](Cc2ccccc2)NC(=O)[C@H](CCC(=O)O)NC(=O)[C@H](Cc2c[nH]c3ccccc23)NC(=O)[C@H](CC(=O)O)NC1=O [Compound 1, [H]OC(=O)CC[C@@H]1NC(=O)[C@H](Cc2cn([H])c3ccccc23)NC(=O)[C@H](CC(=O)O[H])NC(=O)[C@H](CC(C)C)NC(=O)[C@H](Cc2c[nH]c3cc(Cl)ccc23)NC(=O)[C@H](CCC(=O)O[H])NC(=O)[C@H](Cc2ccccc2)NC(=O)[C@@H]2CCCN2C(=O)[C@H]2CCCN2C(=O)[C@H](Cc2ccccc2)NC1=O] (cyclo(FE[Trp(6-Cl)]LDWEF[dP]P)) | –
6 | – | – | 1000 to 2500 | CC(C)C[C@@H]1NC(=O)[C@H](Cc2c[nH]c3ccccc23)NC(=O)[C@H](CCC(=O)O)NC(=O)[C@H](Cc2ccccc2)NC(=O)[C@@H]2CCCN2C(=O)[C@H]2CCCN2C(=O)[C@H](Cc2ccccc2)NC(=O)[C@H](CCC(=O)O)NC(=O)[C@H](Cc2c[nH]c3ccccc23)NC(=O)[C@H](CC(=O)O)NC1=O [Compound 2, [H]OC(=O)CC[C@@H]1NC(=O)[C@H](Cc2cn([H])c3ccccc23)NC(=O)[C@H](CC(=O)O[H])NC(=O)[C@H](CC(C)C)NC(=O)[C@H](Cc2cn([H])c3ccccc23)NC(=O)[C@H](CCC(=O)O[H])NC(=O)[C@H](Cc2ccccc2)NC(=O)[C@@H]2CCCN2C(=O)[C@H]2CCCN2C(=O)[C@H](Cc2ccccc2)NC1=O] (cyclo(FEWLDWEF[dP]P)) | –
7 | – | – | 1000 to 2500 | CC(C)[C@H]1C(=O)N[C@@H](Cc2cccnc2)C(=O)N2CCC[C@@H]2C(=O)N(C)[C@@H](C)C(=O)N[C@@H](Cc2ccc(F)cc2)C(=O)N[C@@H](C(C)(C)C)C(=O)N[C@@H](Cc2ccc(Cl)cc2)C(=O)N2CCCC[C@@H]2C(=O)N2CCC[C@H]2C(=O)N[C@@H](Cc2ccccc2)C(=O)N1C [Compound 27, CC(C)[C@@H]1N(C)C(=O)[C@H](Cc2ccccc2)NC(=O)[C@@H]2CCCN2C(=O)[C@H]2CCCCN2C(=O)[C@H](Cc2ccc(Cl)cc2)NC(=O)[C@@H](NC(=O)[C@H](Cc2ccc(F)cc2)NC(=O)[C@H](C)N(C)C(=O)[C@H]2CCCN2C(=O)[C@H](Cc2cccnc2)NC1=O)C(C)(C)C] (cyclo([3Pal][dP][NMeA][Phe(4-F)][Tle][Phe(4-Cl)][dPip]PF[NMeV])) | –
8 | – | – | < 1000 | COCCN1CC(=O)N(C)[C@@H](C)C(=O)N[C@@H](Cc2ccc(F)cc2)C(=O)N(C)[C@@H](C)C(=O)N[C@@H](Cc2ccc(Cl)cc2)C(=O)N2CCCC[C@@H]2C(=O)N2CCC[C@H]2C(=O)N[C@@H](Cc2cccs2)C(=O)N[C@@H](C(C)(C)C)C(=O)N[C@@H](Cc2cccnc2)C1=O [Compound 20, COCCN1CC(=O)N(C)[C@@H](C)C(=O)N[C@@H](Cc2ccc(F)cc2)C(=O)N(C)[C@@H](C)C(=O)N[C@@H](Cc2ccc(Cl)cc2)C(=O)N2CCCC[C@@H]2C(=O)N2CCC[C@H]2C(=O)N[C@@H](Cc2cccs2)C(=O)N[C@H](C(=O)N[C@@H](Cc2cccnc2)C1=O)C(C)(C)C] (cyclo([2Thi][Tle][3Pal][Nme][NMeA][Phe(4-F)][NMeA][Phe(4-Cl)][dPip]P)) | –
9 | – | – | < 1000 | CC(C)C[C@H]1C(=O)N[C@@H](CC(=O)O)C(=O)N[C@@H](Cc2c[nH]c3ccccc23)C(=O)N[C@@H](CCC(=O)O)C(=O)N[C@@H](Cc2ccccc2)C(=O)N2CCC[C@@H]2C(=O)N2CCC[C@H]2C(=O)N[C@@H](Cc2ccccc2)C(=O)N[C@@H](CCC(=O)O)C(=O)N[C@@H](Cc2c[nH]c3ccccc23)C(=O)N1C [Compound 3, [H]OC(=O)CC[C@@H]1NC(=O)[C@H](Cc2ccccc2)NC(=O)[C@@H]2CCCN2C(=O)[C@H]2CCCN2C(=O)[C@H](Cc2ccccc2)NC(=O)[C@H](CCC(=O)O[H])NC(=O)[C@H](Cc2cn([H])c3ccccc23)NC(=O)[C@H](CC(=O)O[H])NC(=O)[C@H](CC(C)C)N(C)C(=O)[C@H](Cc2cn([H])c3ccccc23)NC1=O] (cyclo(FEW[NMeL]DWEF[dP]P)) | –

Row | SMILES | IC50 (Human MDM4 (HDM4) 1-114; [3]) [nM] | IC50 (Human MDM2 (HDM2) 1-116 [1]; [4]) [nM] | IC50 (Human MDM2 (HDM2) 1-116 [2]) [nM] | further results
10 | C[C@H]1C(=O)N[C@@H](Cc2ccc(Cl)cc2)C(=O)N2CCCC[C@@H]2C(=O)N2CCC[C@H]2C(=O)N[C@@H](Cc2ccccc2)C(=O)N[C@@H](C(C)(C)C)C(=O)N[C@@H](Cc2ccc(O)cc2)C(=O)N2CCC[C@@H]2C(=O)N(C)[C@@H](C)C(=O)N[C@@H](Cc2ccc(F)cc2)C(=O)N1C [Compound 10, [H]Oc1ccc(C[C@@H]2NC(=O)[C@@H](NC(=O)[C@H](Cc3ccccc3)NC(=O)[C@@H]3CCCN3C(=O)[C@H]3CCCCN3C(=O)[C@H](Cc3ccc(Cl)cc3)NC(=O)[C@H](C)N(C)C(=O)[C@H](Cc3ccc(F)cc3)NC(=O)[C@H](C)N(C)C(=O)[C@H]3CCCN3C2=O)C(C)(C)C)cc1] (cyclo(F[Tle]Y[dP][NMeA][Phe(4-F)][NMeA][Phe(4-Cl)][dPip]P)) | – | – | 1000 to 2500 | –
